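The compound was tested at five concentrations on cells cultured in 96-well plates, with a 48-hour exposure period. TGI denotes the concentration required for complete inhibition of growth.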
How the values were obtained:
Experiment in all cases: NCI anticancer screen, dose series, 48 h
[1] = system: SNB-19 CNS
[2] = system: SF-539 CNS
[3] = system: KM12 colon
[4] = system: MDA-N
[5] = system: LOX IMVI melanoma
[6] = system: TK-10 renal
[7] = system: A498 renal
[8] = system: K-562 leukemia
[9] = system: SK-MEL-28 melanoma
[10] = system: U251 CNS
[11] = system: SK-OV-3 ovarian
[12] = system: T-47D breast
[13] = system: SW-620 colon
[14] = system: UACC-257 melanoma
[15] = system: HOP-92 NSCLC
[16] = system: HS 578T breast

Row | SMILES | TGI [1] [µM] | TGI [2] [µM] | TGI [3] [µM] | TGI [4] [µM] | TGI [5] [µM] | TGI [6] [µM] | TGI [7] [µM] | TGI [8] [µM] | TGI [9] [µM] | TGI [10] [µM] | TGI [11] [µM] | TGI [12] [µM] | TGI [13] [µM] | TGI [14] [µM] | TGI [15] [µM] | TGI [16] [µM]
1 | O=c1c(=[n+]2ccc(=C([O-])c3ccccc3)cc2)/c(=N/S(=O)(=O)c2ccccc2)c(=O)c2ccccc12 | 26.7 | 25.9 | 28.3 | 3.27 | 9.45 | 32.2 | 32 | 9.98 | 8.8 | 16.1 | 29.2 | 12.9 | 22 | 23.9 | 21.1 | 18.7
2 | CCOC(=O)c1ccc(Nc2nc3cc(C(F)(F)F)ccc3nc2C(=O)OCC)cc1 | 62.2 | > 100 | > 100 | > 100 | > 100 | 63.1 | > 100 | > 100 | > 100 | 40.7 | > 100 | > 100 | > 100 | > 100 | > 100 | > 100
3 | Cn1c(=O)c2c(nc3n(C)c(=O)c4ccccc4n23)n(C)c1=O | > 100 | > 100 | > 100 | > 100 | > 100 | > 100 | > 63.6 | > 100 | > 100 | > 100 | > 100 | > 100 | > 100 | > 100 | > 100 | > 100
4 | COc1cccc(C2c3cc4c(cc3OC(N3CCCCC3)C2C)OCO4)c1OC (configuration not stated) | > 100 | 33.9 | 23.8 | 47 | 20.1 | 84.1 | 28.4 | 20.7 | 46.7 | 51.5 | > 100 | 54.2 | 68.9 | 36.2 | 37.9 | 29.5
5 | COC(=O)c1ccccc1C1CN=NC12Cc1cc(C)cc(C)c1C2=O (configuration not stated) | > 100 | > 100 | > 100 | > 100 | > 100 | > 100 | 66.2 | > 100 | > 100 | > 100 | > 100 | > 100 | > 100 | > 100 | > 100 | > 100
6 | CCOC(=O)c1cc2cc(C)cc(C(=O)c3ccc([N+](=O)[O-])cc3)c2[nH]1 | > 100 | > 100 | > 100 | > 100 | > 100 | > 100 | > 100 | > 100 | > 100 | > 100 | > 100 | > 100 | > 100 | > 100 | > 100 | > 100
7 | Cc1nnc2n1N=C(c1cc(F)c(Cl)cc1Cl)/C(=C/c1ccc3c(c1)OCO3)S2 | > 100 | > 100 | > 100 | > 100 | > 100 | > 100 | > 100 | > 100 | > 100 | > 100 | > 100 | > 100 | > 100 | > 100 | > 100 | > 100
8 | O=c1[nH]c2cc([N+](=O)[O-])ccc2nc1/C=C(\O)c1ccc(Cl)cc1 | 24 | 23.1 | 40 | 78.7 | 25.4 | 16.5 | 39.6 | > 100 | 22.9 | 19.8 | 43.4 | 30.8 | 28.9 | 60.5 | 36.6 | 44.8
9 | CC(C)NC(=O)OCc1c(COC(=O)NC(C)C)c(-c2ccc[n+](COC(=O)C(C)(C)C)c2)n2c1CCC2 | > 100 | > 100 | > 100 | > 100 | > 100 | > 100 | > 91.9 | > 100 | > 100 | > 100 | > 100 | > 100 | > 100 | > 100 | > 100 | > 100
10 | Cc1cn(C2CC(NC(=NCC3OC(n4cnc5c(N)ncnc54)CC3O)NC#N)C(CO)O2)c(=O)[nH]c1=O (configuration not stated) | > 100 | > 100 | > 100 | > 100 | > 100 | > 100 | > 100 | > 100 | > 100 | > 100 | > 100 | > 100 | > 100 | > 100 | > 100 | > 100
11 | CC1=C[C@@H]2[C@@H](CC(CO)=C[C@H]3[C@@H]4C(C)(C)[C@]4(OCC(C)C)[C@H](OCC(C)C)[C@@H](C)[C@]23O)C1=O | > 8.32 | 2.87 | > 5.69 | 3.49 | 3.06 | > 5.97 | > 4.44 | > 4.86 | 3.38 | 4.15 | > 8.32 | > 8.32 | 4.68 | 3.72 | > 5.57 | 2.71
12 | O=c1cc(-c2cccc(OCc3ccccc3)c2)[nH]c2cc3c(cc12)OCO3 | 14.9 | 0.564 | > 100 | 0.417 | > 100 | 24.7 | 3.16 | > 100 | > 100 | 1.84 | 4.23 | > 100 | > 100 | > 100 | 18.6 | 3.02
13 | O=S(=O)(O)C(Cc1nc2ccccc2[nH]1)S(=O)(=O)OCCC1S(=O)(=O)OCCOS1(=O)=O (configuration not stated) | > 100 | > 100 | > 100 | > 100 | > 100 | > 100 | > 100 | > 100 | > 100 | > 100 | > 100 | > 100 | > 100 | > 100 | > 100 | > 100
14 | CCn1c2ccccc2c2cc(NC(=O)c3c(NCCNCCO)nc(=O)[nH]c3C)ccc21 | > 100 | > 100 | > 100 | > 100 | > 100 | > 100 | > 100 | > 100 | > 100 | > 100 | > 100 | > 100 | > 100 | > 100 | > 100 | > 100
15 | CN1CCc2cc(N)cc3c2C1Cc1ccc2c(c1-3)OCO2 (configuration not stated) | > 100 | > 95 | > 100 | > 100 | 37.2 | > 88.8 | > 100 | > 80 | > 100 | > 100 | > 100 | > 100 | > 100 | > 64.6 | 66.9 | 82.2
16 | Cc1cc(O)c2c(c1)CC(O)C1=C2C(=O)c2c(O)ccc(OC3CC(O)C(OC4CC(OC5CCC(O)C(C)O5)C(O)C(C)O4)C(C)O3)c2C1=O (configuration not stated) | 3.38 | 3.62 | 4.46 | 3.74 | 2.89 | 4.03 | 4.91 | 6.98 | 3.86 | 3.22 | 6.71 | 8.38 | 3.14 | 2.93 | 3.54 | 6.36
17 | O=C(Nc1ccc(Cl)cc1)NS(=O)(=O)c1c(-c2ccccc2)oc2ccccc2c1=O | > 100 | > 100 | > 100 | > 100 | > 100 | 86.9 | > 100 | > 100 | > 100 | > 100 | > 100 | > 100 | > 100 | > 100 | > 100 | > 100

From PubChem BioAssay (NCI)
